Literature values in patent US12528029B2, “Separating and quantifying unbound target analytes from biological samples” (ARUP Laboratories, Inc., priority 2017, dated 2026).

Experiments:
[1] = molecular target: T1, vitamin D binding protein (VDBP) (Homo sapiens, UniProt P02774); conditions: serum
T1 construct: host or cells: circulating blood / serum
T1 sequence (P02774 17-474): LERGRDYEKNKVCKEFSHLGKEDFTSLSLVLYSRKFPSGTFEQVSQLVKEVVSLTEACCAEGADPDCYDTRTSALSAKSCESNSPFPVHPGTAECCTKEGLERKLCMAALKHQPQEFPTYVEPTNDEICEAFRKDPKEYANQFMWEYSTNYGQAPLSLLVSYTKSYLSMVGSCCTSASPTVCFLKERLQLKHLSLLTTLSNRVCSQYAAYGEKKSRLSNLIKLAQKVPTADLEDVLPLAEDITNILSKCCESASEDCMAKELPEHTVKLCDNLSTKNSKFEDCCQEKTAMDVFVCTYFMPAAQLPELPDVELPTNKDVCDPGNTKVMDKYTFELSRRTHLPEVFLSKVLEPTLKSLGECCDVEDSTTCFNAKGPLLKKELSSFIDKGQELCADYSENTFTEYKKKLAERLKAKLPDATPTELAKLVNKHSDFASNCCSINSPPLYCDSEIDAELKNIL

[2] = molecular target: T2, albumin (Homo sapiens, UniProt P02768)
T2 construct: host or cells: circulating blood / serum
T2 sequence (P02768 25-609): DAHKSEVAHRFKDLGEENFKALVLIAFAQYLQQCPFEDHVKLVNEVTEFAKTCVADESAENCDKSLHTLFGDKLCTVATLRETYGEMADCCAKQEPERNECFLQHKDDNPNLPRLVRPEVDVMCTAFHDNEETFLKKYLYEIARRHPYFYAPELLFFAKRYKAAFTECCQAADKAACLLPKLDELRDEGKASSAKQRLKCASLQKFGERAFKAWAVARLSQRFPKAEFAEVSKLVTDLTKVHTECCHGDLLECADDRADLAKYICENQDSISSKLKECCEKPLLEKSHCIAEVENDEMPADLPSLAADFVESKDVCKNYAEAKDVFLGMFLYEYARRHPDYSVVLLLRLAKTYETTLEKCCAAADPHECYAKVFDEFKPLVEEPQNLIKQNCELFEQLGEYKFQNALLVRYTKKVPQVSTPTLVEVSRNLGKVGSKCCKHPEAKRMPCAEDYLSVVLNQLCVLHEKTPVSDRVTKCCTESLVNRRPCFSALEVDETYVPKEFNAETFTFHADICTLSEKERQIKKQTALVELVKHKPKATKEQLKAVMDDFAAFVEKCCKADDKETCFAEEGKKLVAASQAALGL

[3] = molecular target: T3, sex hormone-binding globulin (SHBG) (Homo sapiens, UniProt P04278); conditions: share of the protein-bound Te; remainder weakly bound to albumin
T3 sequence (P04278 30-402): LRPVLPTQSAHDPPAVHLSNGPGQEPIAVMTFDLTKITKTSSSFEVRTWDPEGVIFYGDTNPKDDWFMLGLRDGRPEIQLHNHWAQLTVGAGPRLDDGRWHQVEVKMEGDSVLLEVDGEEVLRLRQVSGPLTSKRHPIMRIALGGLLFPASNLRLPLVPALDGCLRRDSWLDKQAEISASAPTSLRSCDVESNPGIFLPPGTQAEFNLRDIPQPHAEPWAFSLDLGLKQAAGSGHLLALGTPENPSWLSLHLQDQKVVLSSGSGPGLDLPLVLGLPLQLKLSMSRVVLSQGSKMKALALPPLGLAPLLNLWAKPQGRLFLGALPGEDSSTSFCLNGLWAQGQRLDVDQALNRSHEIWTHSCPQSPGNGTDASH

| Molecule | circulating vitamin D in the form of 25OHD, tightly bound to VDBP [1] | 25OHD circulating in blood bound to albumin [2] | circulating 25OHD that is free (not protein bound) (circulating) | fraction of Te present in unbound, free form (circulating in blood) | protein bound Te strongly bound to SHBG [3] |
| --- | --- | --- | --- | --- | --- |
| 25-hydroxy vitamin D [25OHD] | 85-90% | 10-15% | Less than 0.1% |  |  |
| C[C@]12CC[C@H]3[C@@H](CCC4=CC(=O)CC[C@@]43C)[C@@H]1CC[C@@H]2O [Te, Testosterone] |  |  |  | 1-3% | 60-70% |
